Laboratory results published in publication PMC12340723, “Validation of Hv1 channel functions in BV2 microglial cells using small molecule modulators” (Frontiers in Cellular Neuroscience, 2025).

What was measured:
[1] = target: T1, Voltage-gated proton channel Hv1 (Mus musculus, UniProt Q3U2S8); experiment: whole-cell patch clamp at +[…] mV in BV2 cells (activator); BCECF pH-recovery assay, effect abolished by Hv1 shRNA; type: cell-based
T1 construct: gene Hvcn1; endogenous Hv1 in BV2 microglial cells
T1 sequence (Q3U2S8 1-269): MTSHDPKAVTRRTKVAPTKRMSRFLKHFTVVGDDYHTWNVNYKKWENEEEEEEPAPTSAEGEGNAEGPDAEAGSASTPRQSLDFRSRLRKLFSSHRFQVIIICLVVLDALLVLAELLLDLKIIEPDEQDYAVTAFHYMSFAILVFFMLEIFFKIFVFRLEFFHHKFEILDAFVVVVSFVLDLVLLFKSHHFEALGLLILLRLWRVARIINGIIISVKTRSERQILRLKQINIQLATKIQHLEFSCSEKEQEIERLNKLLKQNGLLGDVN

[2] = target: T1, Voltage-gated proton channel Hv1; experiment: whole-cell patch clamp at +[…] mV in BV2 cells; BCECF pH-recovery assay, effect abolished by Hv1 shRNA; type: cell-based

EC50 [1] | IC50 [2] | Structure (SMILES)
8.41 ± 1.9 µM |  | O=C(CC1Sc2ccccc2NC1=O)Nc1ccccc1Cl (centres unmarked) [S-023-0515]
 | 2.6 ± 1.1 µM | O=C(CC1Sc2ccccc2NC1=O)Nc1ccc(Cl)cc1 (centres unmarked) [YHV98-4]
